Data set [1] has as its system sickle cell disease leg ulcers. Conditions: published randomised trials; RGD peptide topical, arginine butyrate intravenous; cited from earlier work.
Data set [2] deals with chronic leg ulcers in patients with sickle cell anaemia. Conditions: concomitant use in 9 of 18 trial patients; p=0.96.
Procedure: The primary endpoints were safety and tolerability, with secondary endpoints of pharmacokinetics, blood flow, and wound healing. Pain relief was analysed post hoc. Endpoints were analysed over time for the whole study population and according to dose level.
Hydroxycarbamide and chronic transfusions were allowed. Patients with acute infections were excluded.
Originally, it was planned to enroll four cohorts with three patients in each, to give a total of 12 participants. […] The first two doses of cream were administered as inpatients, and the remaining six doses in the outpatient day hospital at the NIH Clinical Center. […] All three patients in each cohort were assessed for the 32-day duration of the study to ensure no dose-limiting toxicities before patients were enrolled into the next cohort. […]
The study ulcer was selected by the wound care nurse and principal investigator on the basis of ulcer duration, size, and accessibility for digital imaging. […] Ulcers were measured manually with a disposable ruler (longest length and widest width) at each encounter and by digital photography three times: before the first application of cream (baseline), and after 2 weeks and after 4 weeks of treatment. […] The ulcer area was calculated by converting the number of pixels representing the ulcer to cm^2 using a calibrated square (35.48 mm×35.62 mm×6.52 mm) that was placed near the ulcer for reference. […]
The conditions of data set [3]: trial patients; after ingestion of hydroxycarbamide vs after sodium nitrite application.
Procedure: Plasma and whole blood nitrite and nitrate concentrations were collected at the following time points: pre-dose; immediately after application; 5, 10, 15, 20, 30, 45, 60, and 90 min post-dose; 2, 3, 6, 8, 12, 24, and 48 h post-dose; then weekly and at the end of the study. All processing was done at the bedside. Plasma and whole blood nitrite and nitrate were measured with a gas-phase chemiluminescence nitric oxide analyzer, as previously reported (Gladwin et al., Proc Natl Acad Sci USA.; 97: 11482-11487, 2000).
Therefore, we did a subsequent pharmacokinetic analysis was carried out with respect to the time and dose of hydroxycarbamide intake instead of nitrite cream administration, using a population approach. A two-compartment model was fitted with first-order absorption and elimination to whole blood nitrite concentrations using first-order conditional estimation method by Phoenix NLME 1.2 (Certara USA Inc., St Louis, Mo., USA), and an exponential model was used to describe the inter-individual variability and a mixed-ratio model to describe the intra-individual variability (FIG. 7C).

For the compound arginine butyrate, the Wound closure result in data set [1] is recorded as “statistically significant increases in wound closure”.
With `NC(=O)NO` [hydroxycarbamide], the “Association with ulcer healing” value in data set [2] was “not associated with ulcer healing”. The “Whole blood nitrite concentrations” value in data set [3] is reported as “increased”.
Regarding Arg-Gly-Asp (RGD) peptide, the Wound closure entry in data set [1] is listed as “statistically significant increases in wound closure”.

The values above are taken from patent publication US10272039B2 (The United States of America, as represented by the …, priority 2014, dated 2019).
